Data: US9018162B2, “Methods for rapidly treating severe hypoglycemia” (Xeris Pharmaceuticals, Inc., priority 2013, dated 2015)

Tests used:
[1] = Freezing point depression of DMSO solutions by DSC; format: physicochemical; conditions: DSC scan
Description: Using PerkinElmer Instruments PYRIS Diamond Differential Scanning calorimetry (“DSC”), samples were cooled to −40° C. and heated to 40° C. at 8° C. per minute for screening purposes.

[2] = Effect of pH on insulin solubility in DMSO (visual, A630); format: physicochemical; conditions: pH memory of 7, some lower-concentration solutions e.g. 10 mg/mL
Description: These solutions were lyophilized to dryness ([…]) using a conservative cycle and reconstituted to various nominal concentrations in DMSO. Solubility was measured by visual inspection for clarity and turbidity via A630.

temperature of crystallization (Tc) [1] [°C] | Molecule | period to slowly dissolve to a clear solution [2]
~18 | C[S+](C)[O-] [neat DMSO, dimethylsulfoxide] | –
– | insulin | about 24 hours
